# Tested on: 299254-011-R-J1-PDC complex spheroids viability
# Test: Anticancer human tumor 299254-011-R-J1-PDC patient-derived melanoma cell line growth inhibition [GQUAD]
# Settings: for IC50: curve of first compound; for viability, T/C: stronger effect = lower value
# From the text: DNA G-quadruplex Stabilizer Agents in Combinations in Complex Spheroids
# A high-throughput screen of multi-cell type tumor spheroids was designed to identify active combinations of DNA G-quadruplex stabilizer agents and targeted small molecules. Complex spheroids include a stromal component modeled by human endothelial cells (HUVEC) and fibroblasts modeled by human mesenchymal stem cells (MSCs). The concentration ranges selected for each drug and investigational agent were based upon clinically achievable concentrations if the clinical Cmax of the agent was known.
# Compounds. The drugs and investigational agents: pidnarulex (CX-5461; NSC782164), APTO-253 (NSC789042), BRACO-19 (NSC847499), peposertib (NSC802822), ceralasertib (NSC780249), elimusertib (NSC800525), camonsertib (NSC841442), AZD-1390 (NSC803789), olaparib (NSC753686), talazoparib (NSC767125), ART-558 (NSC835418), sotorasib (NSC818433), MRTX-1133 (NSC836407), SN-38 (NSC673596), topotecan (NSC609699), etoposide (NSC141540), doxorubicin (NSC123127), gemcitabine (NSC613327), 5-fluorouracil (NSC19893), paclitaxel (NSC125973), vemurafenib (NSC761431), panobinostat (NSC761190), R-306465 (JNJ-16241199; NSC773264), adavosertib (NSC754352), TP-3654 (NSC805149), carboplatin (NSC241240), KSQ-4279 (NSC840948), and staurosporine (NSC755774) were obtained from the National Cancer Institute (NCI) Developmental Therapeutics Program Chemical Repository (34). The FDA-approved anticancer drug set is available from the NCI Developmental Therapeutics Program. […] The stock solutions were prepared in dimethyl sulfoxide (DMSO, Sigma-Aldrich, St. Louis, MO, cat. D2650) at 800-fold the tested concentration and stored at -70 degrees C prior to their use. All drugs and investigational agents were tested over a range starting from a high concentration at or near the clinical Cmax and decreasing in half-log increments. If the clinical Cmax for an agent had not been determined, the highest concentration tested was 10 microM.
# 2.3 Cell Culture. All cells were maintained in an incubator at 37 degrees C and 5% CO2 with 95% humidity. The PDC lines were cultured according to standard operating procedures established by the NCI PDMR. All PDCs were thawed and cultured in Matrigel-coated flasks prepared with a working solution of 1X Ham's F-12 nutrient mix, without supplementation (Invitrogen, cat. 11765054), 100 U/mL penicillin-streptomycin (Invitrogen, cat. 15140122), and 2.5% Matrigel (Corning Inc., cat. 354248) for the first three passages. The 857933-349-R-J2-PDC line was cultured in 6C/Colon 1B media, which includes advanced DMEM/F-12 (Thermo Fisher Scientific, cat. 12634028), 10 mM HEPES (Thermo Fisher Scientific, cat. 15630080), 1X GlutaMAX supplement (Thermo Fisher Scientific, cat. 35050061), 0.1 mg/mL primocin (InvivoGen, cat. ant-pm-2), 10% defined fetal bovine serum, heat inactivated (HyClone Laboratories Inc., cat. SH30070.03HI), 50% L-WRN conditioned media (ATCC, cat. CRL-3276), 1.25 mM N-Acetyl-L-cysteine (Sigma-Aldrich, cat. A9165), 10 mM nicotinamide (Sigma-Aldrich, cat. N0636), 1X B-27 supplement (Thermo Fisher Scientific, cat. 17504044), 1X N-2 supplement (Thermo Fisher Scientific, cat. 17502048), 10 microM Y-27632 dihydrochloride (Tocris Bioscience, cat. 1254), and 50 ng/mL human EGF recombinant protein (Thermo Fisher Scientific, cat. PHG0311). The 485176-168-R4-J1-PDC line was cultured in Panc media, which includes all 6C/Colon 1B media components plus 100 ng/mL human FGF-10 (Thermo Fisher Scientific, cat. 100-26), 500 nM SB-431542 (Selleckchem, cat. S1067), and gastrin (Tocris, cat. 3006).
# […]
# 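Note: spheroids exposed to the agents for seven days before readout.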
# 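Throughout, for viability, T/C: percent viability relative to DMSO vehicle control wells = 100%.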
smiles,measurement,setting,value
Cc1[nH]c2ccccc2c1CCNCc1ccc(/C=C/C(=O)NO)cc1 + Cc1[nH]c2ccc(F)cc2c1-c1nc2c3cccnc3c3ncccc3c2[nH]1,IC50,second compound 0.0316 µM,123 nM
same,IC50,second compound 0.1 µM,128 nM
same,IC50,second compound 0.316 µM,198 nM
same,IC50,second compound 1 µM,187 nM
same,IC50,second compound 3.16 µM,181 nM
same,IC50,second compound 10 µM,163 nM
same,"viability, T/C","second compound 0.0316 µM, first compound 0.000999 µM",95.9%
same,"viability, T/C","second compound 0.0316 µM, first compound 0.00316 µM",81.8%
same,"viability, T/C","second compound 0.0316 µM, first compound 0.00999 µM",92.5%
same,"viability, T/C","second compound 0.0316 µM, first compound 0.0316 µM",81.3%
same,"viability, T/C","second compound 0.0316 µM, first compound 0.0999 µM",56.3%
same,"viability, T/C","second compound 0.0316 µM, first compound 0.316 µM",21.5%
same,"viability, T/C","second compound 0.1 µM, first compound 0.000999 µM",95.3%
same,"viability, T/C","second compound 0.1 µM, first compound 0.00316 µM",119%
same,"viability, T/C","second compound 0.1 µM, first compound 0.00999 µM",81.8%
same,"viability, T/C","second compound 0.1 µM, first compound 0.0316 µM",71.1%
same,"viability, T/C","second compound 0.1 µM, first compound 0.0999 µM",64.5%
same,"viability, T/C","second compound 0.1 µM, first compound 0.316 µM",22%
same,"viability, T/C","second compound 0.316 µM, first compound 0.000999 µM",88.1%
same,"viability, T/C","second compound 0.316 µM, first compound 0.00316 µM",99.4%
same,"viability, T/C","second compound 0.316 µM, first compound 0.00999 µM",95.8%
same,"viability, T/C","second compound 0.316 µM, first compound 0.0316 µM",77.6%
same,"viability, T/C","second compound 0.316 µM, first compound 0.0999 µM",86.3%
same,"viability, T/C","second compound 0.316 µM, first compound 0.316 µM",25.5%
same,"viability, T/C","second compound 1 µM, first compound 0.000999 µM",96.1%
same,"viability, T/C","second compound 1 µM, first compound 0.00316 µM",87.4%
same,"viability, T/C","second compound 1 µM, first compound 0.00999 µM",93.7%
same,"viability, T/C","second compound 1 µM, first compound 0.0316 µM",89%
same,"viability, T/C","second compound 1 µM, first compound 0.0999 µM",81.8%
same,"viability, T/C","second compound 1 µM, first compound 0.316 µM",23.6%
same,"viability, T/C","second compound 3.16 µM, first compound 0.000999 µM",93.8%
same,"viability, T/C","second compound 3.16 µM, first compound 0.00316 µM",79.2%
same,"viability, T/C","second compound 3.16 µM, first compound 0.00999 µM",86.6%
same,"viability, T/C","second compound 3.16 µM, first compound 0.0316 µM",85.8%
same,"viability, T/C","second compound 3.16 µM, first compound 0.0999 µM",74.8%
same,"viability, T/C","second compound 3.16 µM, first compound 0.316 µM",26.7%
same,"viability, T/C","second compound 10 µM, first compound 0.000999 µM",78.2%
same,"viability, T/C","second compound 10 µM, first compound 0.00316 µM",105%
same,"viability, T/C","second compound 10 µM, first compound 0.00999 µM",94.6%
same,"viability, T/C","second compound 10 µM, first compound 0.0316 µM",84.1%
same,"viability, T/C","second compound 10 µM, first compound 0.0999 µM",74.8%
same,"viability, T/C","second compound 10 µM, first compound 0.316 µM",17.9%

# From PubChem BioAssay AID2060513 (Molecular Pharmacology Branch, DTP, NCI, 2025)
